Measured values taken from PubChem BioAssay (NCI).
Several values for one entry are separate records, joined by “and”; a condition that tells them apart may be missing. Equal entries are not always repeated.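 Test compounds were applied to cells in 96-well plates for 48 hours at 5 doses. GI50 marks 50% less growth. TGI marks complete inhibition of growth.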

Experiments:
Assay in all cases: NCI anticancer screen, dose series, 48 h
NCI-H522 lung = test system: NCI-H522 lung
EKVX NSCLC = test system: EKVX NSCLC
LOX IMVI melanoma = test system: LOX IMVI melanoma
NCI-H460 lung = test system: NCI-H460 lung
HOP-62 NSCLC = test system: HOP-62 NSCLC
HCC-2998 colon = test system: HCC-2998 colon
SK-OV-3 ovarian = test system: SK-OV-3 ovarian
OVCAR-8 ovarian = test system: OVCAR-8 ovarian
NCI-H226 lung = test system: NCI-H226 lung
TK-10 renal = test system: TK-10 renal

| SMILES | GI50 (NCI-H522 lung) | TGI (NCI-H522 lung) | GI50 (EKVX NSCLC) | TGI (EKVX NSCLC) | GI50 (LOX IMVI melanoma) | TGI (LOX IMVI melanoma) | GI50 (NCI-H460 lung) | TGI (NCI-H460 lung) | GI50 (HOP-62 NSCLC) | TGI (HOP-62 NSCLC) | GI50 (HCC-2998 colon) | TGI (HCC-2998 colon) | GI50 (SK-OV-3 ovarian) | TGI (SK-OV-3 ovarian) | GI50 (OVCAR-8 ovarian) | GI50 (NCI-H226 lung) | TGI (NCI-H226 lung) | GI50 (TK-10 renal) | TGI (TK-10 renal) | TGI (OVCAR-8 ovarian) |
| --- | --- | --- | --- | --- | --- | --- | --- | --- | --- | --- | --- | --- | --- | --- | --- | --- | --- | --- | --- | --- |
| COc1ccc(/C(COc2ccc3oc(-c4ccccc4)cc(=O)c3c2)=N\O)cc1 | 1.87 µM | 39.5 µM | 0.229 µM | 1.91 µM | 32.2 nM | 2.69 µM | 88.2 nM | > 16.3 µM | 1.72 µM | > 50 µM | 0.145 µM | 0.983 µM | 0.747 µM | > 33.5 µM | 0.209 µM | 12.3 µM | > 50 µM | 0.149 µM | 9.75 µM | – |
| CC1C(C)N(C(=O)CCl)c2ccccc2N1C(=O)CCl (stereo unspecified) | 0.162 µM | 0.347 µM | 0.941 µM | 2.42 µM | 235 nM | 0.729 µM | 1740 nM | 3.98 µM | 1.62 µM | 3.52 µM | 1.69 µM | 3.23 µM | 1.58 µM | 3 µM | 0.55 µM | 1.11 µM | 3.52 µM | 0.78 µM | 2.04 µM | 12.5 µM |
| CCN(Cc1ccccc1)C1CCN(Cc2cc(Br)ccc2O)CC1 | 17 µM | 40.3 µM | 31.9 µM | > 100 µM | 23300 nM | 63.6 µM | 58200 nM | > 100 µM | > 100 µM | > 100 µM | 33.7 µM | > 100 µM | 77.4 µM | > 100 µM | 76.6 µM | > 100 µM | > 100 µM | > 100 µM | > 100 µM | > 100 µM |
| OC(COC(c1ccccc1)(c1ccccc1)c1ccccc1)C(O)CC1SCCS1 (stereo unspecified) | – | – | – | 30.7 µM | – | 32 µM | – | – | – | 30.7 µM | – | – | – | 48.9 µM | – | – | 35.3 µM | – | 39.6 µM | 57.7 µM |
| COc1ccc(Cc2coc3ccccc3c2=O)cc1OC | – | > 100 µM | – | > 100 µM | – | > 100 µM | – | > 100 µM | – | > 100 µM | – | – | – | > 100 µM | – | – | > 100 µM | – | > 100 µM | > 100 µM |
| CC(C)(C)C1CCC2c3c([nH]c4ccccc34)C3C(=O)N(c4ccc(Cl)cc4)C(=O)C3C2C1 (stereo unspecified) | 60.8 µM and > 10 µM | > 100 µM | 63.9 µM and > 10 µM | > 100 µM | – | 0.0487 µM | 37200 nM and > 10000 nM | > 100 µM | > 100 µM | > 100 µM | 22.1 µM and > 10 µM | 81.6 µM and > 10 µM | > 100 µM | > 100 µM | > 100 µM | 72.8 µM and > 10 µM | > 100 µM | > 100 µM | > 100 µM | > 100 µM |
| CC1=C(c2ccccc2)C(O)(c2ccccc2)C(C)C1=O (stereo unspecified) | – | – | 35.1 µM | > 100 µM | 15300 nM | > 100 µM | 25100 nM | > 100 µM | 11.6 µM | > 100 µM | – | – | 20 µM | > 100 µM | 48 µM | 33.4 µM | > 100 µM | 30.1 µM | > 100 µM | > 100 µM |
| CC1=C(SCCC(=O)OC(C[Se]C2=C(C)C(=O)c3ccccc3C2=O)C(=O)NCCCCCC(=O)OCc2ccccc2)C(=O)c2ccccc2C1=O (stereo unspecified) | 3.96 µM | 15 µM | 3.62 µM | 17.8 µM | 2750 nM | 11.5 µM | 1900 nM | 4.54 µM | 3.82 µM | 14.4 µM | 6.52 µM | 18.5 µM | 7.1 µM | 19.7 µM | 4.16 µM | 19.5 µM | 51.3 µM | 13.8 µM | 27.2 µM | 15 µM |
| CN(C)CCNC(=O)c1cccc2cc3c(Cl)cccc3nc12 | – | > 100 µM | – | 9.58 µM | – | 2.33 µM | – | – | – | 2.55 µM | – | 3.66 µM | – | 10.8 µM | – | – | 2.73 µM | – | 7.66 µM | > 20.3 µM |
| O=S(=O)(O)c1cc(O)c(N=Nc2ccc(O)cc2O)c2ccccc12 | – | 95.4 µM | – | > 100 µM | – | > 100 µM | – | – | – | > 100 µM | – | – | – | > 100 µM | – | – | 48.5 µM | – | > 100 µM | > 100 µM |
| COc1ccc2c3c([nH]c2c1[N+](=O)[O-])C(C)N(Cc1ccccc1)CC3 (stereo unspecified) | – | – | – | > 100 µM | – | > 100 µM | – | 14.1 µM | – | 7.12 µM | – | > 100 µM | – | – | – | – | > 100 µM | – | > 100 µM | > 100 µM |
| O=C(CCCN1CCC(O)(c2ccc(Cl)cc2)CC1)c1ccc(F)cc1 | – | 39.5 µM | – | > 100 µM | – | 33.1 µM | – | 45.1 µM | – | > 100 µM | – | – | – | > 100 µM | – | – | > 100 µM | – | > 100 µM | > 100 µM |
| Cc1cccc2nc3ccccc3c(Nc3ccc(NS(C)(=O)=O)cc3)c12 | 8.09 µM | 22 µM | – | – | 3380 nM | 15.1 µM | 2450 nM | 11.7 µM | 4.69 µM | 17 µM | 8.09 µM | 21.4 µM | 6.22 µM | 55.5 µM | 6.23 µM | 2.2 µM | 7.15 µM | 6.58 µM | 21 µM | 30.9 µM |
| CCC(C)[C@H](NC(=O)Nc1cc(C(F)(F)F)cc(C(F)(F)F)c1)C(=O)N[C@@H](Cc1cn(C)cn1)C(=O)OC (stereo partly specified) | 0.584 µM | 1.15 µM | – | – | 768 nM | 1.83 µM | 895 nM | 1.89 µM | 0.919 µM | 1.82 µM | 0.696 µM | 1.35 µM | 1.38 µM | 1.82 µM | 0.634 µM | 0.571 µM | 1.29 µM | 3.65 µM | – | 1.33 µM |
| CC1=C(C(=O)Nc2ccccc2)C(c2cccc3ccccc23)C(C(=O)Nc2ccccc2)=C(C)N1 | – | 35.6 µM | – | 37.6 µM | – | 30.4 µM | – | – | – | 35.4 µM | – | 38.6 µM | – | 38.5 µM | – | – | 16 µM | – | 96.7 µM | 35.8 µM |
| CN(C)c1ccc2oc(=O)c3ccccc3c2c1 | – | > 100 µM | – | > 100 µM | – | > 100 µM | – | > 100 µM | – | 80.5 µM | – | > 100 µM | – | – | – | – | > 100 µM | – | > 100 µM | > 100 µM |
| Cc1cc2c(C)n(Cc3ccccc3Cl)nc2c(C(=O)O)c1C | – | – | – | > 100 µM | – | > 100 µM | – | > 100 µM | – | > 100 µM | – | > 100 µM | – | > 100 µM | – | – | > 100 µM | – | > 100 µM | > 100 µM |
